pKd: −log10 of the molar value.
Assays:
Transthyretin [1] = biological target: Transthyretin (Homo sapiens, UniProt P02766); test: Binding affinity to wild type TTR (unknown origin) expressed in Escherichia coli BL21/DE3 by Circular dichroism spectroscopy
Transthyretin [2] = biological target: Transthyretin (Homo sapiens, UniProt P02766, V50M); test: Stabilization of TTR V30M mutant (unknown origin) assessed as inhibition of protein-mediated amyloid fibril formation

SMILES | pKd (Transthyretin [1]) | pKd (Transthyretin [2])
O=C(O)Cc1ccccc1Nc1c(Cl)cccc1Cl [DICLOFENAC] | 7.22 | –
O=C(O)c1ccccc1Nc1cccc(C(F)(F)F)c1 [FLUFENAMIC ACID] | 7.52 | –
O=C(CCc1ccc(O)cc1)c1c(O)cc(O)cc1O [PHLORETIN] | – | 5.09
COc1cc(O)c(CC=C(C)C)c(O)c1C(=O)/C=C/c1ccc(O)cc1 [XANTHOHUMOL] | – | 4.92

Reference: ChEMBL document CHEMBL4706567, “Transthyretin Amyloidogenesis Inhibitors: From Discovery to Current Developments” (J Med Chem, 2020)
